# Reference: patent US20250314636A1, “METHOD OF PREPARING AND EXPANDING A POPULATION OF IMMUNE CELLS FOR CANCER THERAPY, POTENCY ASSAY FOR TUMOR RECOGNITION, BIOLOGICAL VACCINE PREPARATION AND EPITOPETARGET FOR ANTIBODIES” (FUNDAÇÃO D. ANNA DE SOMMER CHAMPALIMAUD E DR. CARLOS MONTEZ …, priority 2022, published 2025)
# Assays:
# TIL = experiment: Peptide recognition assay in TIL (IFN-γ ELISA / IL-17 in supernatant, 7 days); type: cell-based, human; set-up: IFN-γ production, TIL: unit not given here; conditions: for IFN-γ production, TIL: 10e4 TIL/well co-cultured with the peptide for 7 days, supernatant tested; for Pancreatic TIL D1599 IFN-y / Pancreatic TILD1599 IL 17: Pancreatic TIL D1599
# Description: (§1) Peptides from tumor-associated antigens (TAAs), listed in Table 5 were placed at 1 ug/well in duplicates using anti-CD3 at 30 ng/mL as well as PHA at 5 μg/mL as positive controls.
# (§2) The differences in TIL versus PBMCs can also be defined by peptide reactivity. 10e^4 TIL or 10e^4 PBMC/well were co-cultured with the peptides listed in Table 11 below for 7 days and the supernatants were tested for IFN-γ production.
# PBMCs = experiment: Peptide recognition assay in PBMCs (IFN-γ in supernatant, 7 days); type: cell-based, human; conditions: 10e4 PBMC/well co-cultured with the peptide for 7 days, supernatant tested
# Description: as §1, §2
Sequence,"IFN-γ production, TIL (TIL)","IFN-γ production, PBMCs (PBMCs)",Pancreatic TIL D1599 IFN-y (TIL) [pg/mL],Pancreatic TILD1599 IL 17 (TIL) [pg/mL]
ALACWGVRGSLLSEA,0,0,,
ALACWGVRGSLLSEA [Mesothelin MPF-12],,,0,0
DILDTAGLEEYSAMR,0,0,,
DILDTAGLEEYSAMR [KRAS_Q61L],,,24,0
ELNNALQNL,6,0,,
"ELNNALQNL [ESAT6, reference compound]",,,0,0
FVAESAEVLLPRLVS,0,0,,
FVAESAEVLLPRLVS [Mesothelin MPF-14],,,0,0
GIPFIETSAKTRQRVED [Kras_P14 (A146 WT)],,,0,0
GIPFIETSTKTRQRVED,85,0,,
GIPFIETSTKTRQRVED [Kras_P15 (A146T)],,,0,0
HRLSEPPEDLDALPL,0,0,,
HRLSEPPEDLDALPL [Mesothelin MPF-8],,,0,0
IPFIETSVKTRQRVE [KRAS_A146V],,,5,0
KLVVVGAGDVGKSALTI,0,0,,
KLVVVGAGDVGKSALTI [Kras_P9 (G13D)],,,0,3
KLVVVGAGGVGKSALTI,0,0,,
KLVVVGAGGVGKSALTI [Kras_P8 (G13 WT)],,,0,108
KLVVVGAVGVGKSAL,0,0,,
KLVVVGAVGVGKSAL [KRAS_G12F],,,36,0
LAFQPPISNHPAPEY,0,0,,
LAFQPPISNHPAPEY [SMAD4 [D1 private peptide]],,,0,0

Sequence,"IFN-γ production, TIL (TIL)","IFN-γ production, PBMCs (PBMCs)",Pancreatic TIL D1599 IFN-y (TIL) [pg/mL],Pancreatic TILD1599 IL 17 (TIL) [pg/mL]
LDILDTAGHEEYSAMRD,0,0,,
LDILDTAGHEEYSAMRD [Kras_P12 (Q61H)],,,0,4
LDILDTAGKEEYSAMRD,0,0,,
LDILDTAGKEEYSAMRD [Kras_P11 (Q61K)],,,0,0
LDILDTAGQEEYSAMRD,0,0,,
LDILDTAGQEEYSAMRD [Kras_P10 (Q61 WT)],,,0,0
LDILDTAGREEYSAMRD,150,0,,
LDILDTAGREEYSAMRD [Kras_P13 (Q61R)],,,0,0
LDVLYPKARLAFQNM [Mesothelin GPI P14],,,0,11
LLPRGAPERQRLLPA [Mesothelin MPF-11],,,0,0
LQGGIPNGYLVLDLS [Mesothelin GPI P40 (596-610)],,,0,0
LVVVGAGAVGKSALT [KRAS_G13A],,,19,0
LVVVGAGCVGKSALT [KRAS_G13C],,,26,0
LVVVGAGRVGKSALT [KRAS_G13R],,,29,0
LVVVGAGSVGKSALT [KRAS_G13S],,,24,0
LVVVGAGVVGKSALT [KRAS_G13V],,,10,0
LVVVGAVGVGKSALT [KRAS fitted for HLA-DQB1*06:02],,,0,0
MALPTARPLLGSCGT [Mesothelin MPF-1],,,0,0
MQEALSGTPCLLGPG [Mesothelin GPI P40 (601-605)],,,0,120
PMVLVGNNCDLPSRT [KRAS_K117N],,,32,0
PVTSLSSASTGDTTP [MUC4-P4 [WT]],,,17,0
PVTSPSSASTGHAIP [MUC4-P10 [WT]],,,5,0

Sequence,"IFN-γ production, TIL (TIL)","IFN-γ production, PBMCs (PBMCs)",Pancreatic TIL D1599 IFN-y (TIL) [pg/mL],Pancreatic TILD1599 IL 17 (TIL) [pg/mL]
PVTSPSSESTGHAIP [MUC4-P9 [Mut]],,,0,0
PVTSTSSASTGHATP [MUC4-P8 [WT]],,,0,2
PVTSTSSVSTGHATP [MUC4-P7 [Mut][WT]],,,0,0
SVSTMDALRGLLPVL [Mesothelin MPF-17],,,0,0
TLGEFLKLDRERAKN [Survivin (97-111)],,,0,0
TPLPVTDASSASTGH [MUC4-P1 [Mut][WT]],,,0,3
TPLPVTDNSSASTGD [MUC4-P11 [Mut]],,,19,0
TPLPVTDTSSASTGD [MUC4-P12 [WT]],,,34,0
TPLPVTDTSSASTGH [MUC4-P2 [WT]],,,0,1
TTPLPVTIPSSASSG [MUC4-P5 [Mut][WT]],,,12,0
TTPLPVTSPSSASSG [MUC4-P6 [WT]],,,0,0
VTDASSASTGH [MUC4-P2_fitted for HLA-A*01:01],,,0,14
VTDTSSASTGH [MUC4-P1_fitted for HLA-A*01:01],,,0,24
WAVRPQDLDTCDPRQ [Mesothelin GPI P13],,,0,0
YEQLDVLKHKLDELY [Mesothelin GPI P5],,,0,0
YKLVVVGAAGVGKSALT [Kras_P7 (G12A)],,,0,65
YKLVVVGACGVGKSALT [Kras_P6 (G12C)],,,0,0
YKLVVVGADGVGKSALT [Kras_P3 (G12D)],,,0,0
YKLVVVGAGGVGKSALT [Kras_P1 (G12 WT)],,,0,37
YKLVVVGARGVGKSALT [Kras_P4 (G12R)],,,0,0
YKLVVVGASGVGKSALT [Kras_P5 (G12S)],,,14,0
YKLVVVGAVGVGKSALT [Kras_P2 (G12V)],,,0,2
